Data from patent publication US20010051131A1, “METHODS FOR DELIVERING BIOACTIVE AGENTS” (priority 1996, published 2001).

Key:
glioblastoma mutiformae = type: in vivo
Experimental: An acoustically active composition is prepared in a 2 mL vial from an aqueous mixture of phosphatidylcholine vesicles filled with perfluorobutane gas in a manner as described above. The resulting compositions contains about 2×10^9 gas filled vesicles. The vial of gas filled vesicles will be diluted into a 100 mL volume of normal saline such that the final gas filled vesicle concentration is about 2×10^7 gas filled vesicles/mL.
The scalp of a patient suffering from glioblastoma mutiformae will be shaved prior to the procedure. The patient will receive an intravenous infusion of 200 mg/M^2 of Carmustine (BCNU) over a period of about 30 minutes. Fifteen minutes after initiating IV injection of Carmustine, IV infusion of the gas filled vesicle composition will be initiated at a rate of about 2 mL per minute (or about 4×10^7 gas filled vesicles per minute). One minute after initiation of infusion of gas filled vesicles, a 200-kilohertz ultrasound transducer will be turned on, and using an acoustic gel, it will be applied to the shaved area of the scalp. The transducer is focused on the glioblastoma. The energy of the transducer will be adjusted to a peak negative pressure of about 2.5 megaPascals and maintained as such for about 30 minutes (for about 15 minutes after infusion of Carmustine has ceased). The infusion of gas filled vesicles will then be terminated.

prostate cancer = assay: Delivery of a radiation sensitizer to treat prostate cancer with air-filled polylactic acid microspheres and ultrasound; settings: 100 mg/m^2 IV over 1 hour, microspheres 5×10^7/minute, endorectal ultrasound 1.5 MegaPascals for 30 minutes

O=NN(CCCl)C(=O)NCCCl [Carmustine]
tumor control (glioblastoma mutiformae; 200 mg/M^2 IV over about 30 minutes, gas filled vesicles about 2 mL per minute, 200-kilohertz ultrasound, 2.5 megaPascals): improved tumor control | delivery of the drug into the tumor tissue (glioblastoma mutiformae; in vivo, iv): enhanced delivery of the drug into the tumor tissue

CC(=O)O[C@H]1C(=O)[C@@]2(C)[C@H]([C@H](OC(=O)c3ccccc3)[C@]3(O)C[C@H](OC(=O)[C@H](O)[C@@H](NC(=O)c4ccccc4)c4ccccc4)C(C)=C1C3(C)C)[C@]1(OC(C)=O)CO[C@@H]1C[C@@H]2O [Paclitaxel]
delivery of drug within the prostate gland (prostate cancer): increased delivery of drug within the prostate gland | tumor control (prostate cancer; then radiation therapy): Improved tumor control
